According to publication PMC3632115 (Nucleic Acids Research, 2013):

Target: T1, Pif1 (Saccharomyces cerevisiae, UniProt P07271)
T1 sequence (P07271 46-859): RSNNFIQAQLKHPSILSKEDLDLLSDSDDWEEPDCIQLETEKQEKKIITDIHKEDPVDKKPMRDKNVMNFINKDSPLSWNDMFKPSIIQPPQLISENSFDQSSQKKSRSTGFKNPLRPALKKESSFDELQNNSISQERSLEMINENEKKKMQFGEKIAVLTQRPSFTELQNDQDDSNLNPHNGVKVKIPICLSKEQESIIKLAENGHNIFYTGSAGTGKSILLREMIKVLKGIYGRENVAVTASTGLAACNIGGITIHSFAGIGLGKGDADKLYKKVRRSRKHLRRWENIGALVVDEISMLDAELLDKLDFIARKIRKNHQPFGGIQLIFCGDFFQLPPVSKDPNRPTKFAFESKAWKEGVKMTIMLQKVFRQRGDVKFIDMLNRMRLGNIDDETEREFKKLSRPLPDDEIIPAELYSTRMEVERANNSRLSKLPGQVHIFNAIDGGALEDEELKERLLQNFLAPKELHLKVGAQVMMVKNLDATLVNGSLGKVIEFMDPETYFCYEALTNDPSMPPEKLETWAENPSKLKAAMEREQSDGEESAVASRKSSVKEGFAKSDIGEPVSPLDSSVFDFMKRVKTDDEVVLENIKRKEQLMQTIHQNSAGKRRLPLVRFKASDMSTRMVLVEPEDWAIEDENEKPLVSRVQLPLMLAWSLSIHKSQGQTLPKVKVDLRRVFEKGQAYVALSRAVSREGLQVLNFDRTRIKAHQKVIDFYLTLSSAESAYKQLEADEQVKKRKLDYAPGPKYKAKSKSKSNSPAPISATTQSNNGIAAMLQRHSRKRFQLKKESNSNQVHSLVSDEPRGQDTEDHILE
Test: stopped-flow Cy3 fluorescence, dissociation of pre-formed Pif1-dT20-Cy3 complex
Format: binding
Details: Buffer T200 (200 mM NaCl, pH 8.3, 5 mM MgCl2), 22°C; 1 mM ADP, 0.1 mg/ml heparin

Q: With `Nc1ncnc2c1ncn2[C@@H]1O[C@H](COP(=O)(O)OP(=O)(O)O)[C@@H](O)[C@H]1O` [ADP] as the molecule, how does the “apparent rate of dissociation” value read?
A: This is true also for ADP, the product of ATP hydrolysis (Figure 1b, green)
